# According to ChEMBL document CHEMBL1132402, “Conformations of trypsin-bound amidine inhibitors of blood coagulant factor Xa by double REDOR NMR and MD simulations” (J Med Chem, 1999):
# Legend:
# Serine protease 1 = target: T1, Serine protease 1 (Bos taurus, UniProt P00760); assay: Inhibitory constant against trypsin
# T1 sequence (P00760 whole entry): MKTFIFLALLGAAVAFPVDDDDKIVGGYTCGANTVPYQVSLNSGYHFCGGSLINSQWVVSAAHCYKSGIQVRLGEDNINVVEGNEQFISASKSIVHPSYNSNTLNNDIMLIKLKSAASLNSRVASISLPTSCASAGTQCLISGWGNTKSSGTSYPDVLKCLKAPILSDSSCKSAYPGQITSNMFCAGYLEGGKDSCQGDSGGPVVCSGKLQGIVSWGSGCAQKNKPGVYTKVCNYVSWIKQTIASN
# Coagulation factor X = Coagulation factor X (Homo sapiens, UniProt P00742); assay: Inhibitory constant against Coagulation factor Xa (factor Xa); set-up: species or system Bos taurus
# Chain of Coagulation factor X (P00742 41-179 limits assumed): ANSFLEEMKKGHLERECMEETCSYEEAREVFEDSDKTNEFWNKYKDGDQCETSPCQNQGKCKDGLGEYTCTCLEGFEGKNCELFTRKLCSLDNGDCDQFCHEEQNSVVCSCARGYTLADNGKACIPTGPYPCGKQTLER
# Chain of Coagulation factor X (P00742 235-488 limits assumed): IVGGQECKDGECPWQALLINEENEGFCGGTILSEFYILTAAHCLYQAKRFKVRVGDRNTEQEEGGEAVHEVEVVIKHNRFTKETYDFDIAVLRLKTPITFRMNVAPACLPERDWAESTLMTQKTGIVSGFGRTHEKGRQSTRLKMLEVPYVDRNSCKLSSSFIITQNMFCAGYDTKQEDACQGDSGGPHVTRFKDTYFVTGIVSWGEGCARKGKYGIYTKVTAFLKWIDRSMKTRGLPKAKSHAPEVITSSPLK
Structure (SMILES),Ki (Serine protease 1) [nM],Ki (Coagulation factor X) [nM]
Cc1c(F)c(Oc2cccc(C(=N)N)c2)cc(Oc2cccc(C(=N)N)c2)c1F,740,12
Cc1c(F)c(Oc2cccc(CN)c2)cc(Oc2cccc(C(=N)N)c2)c1F,2900,1400
